“And” between values parts separate entries of the source, which are not always exact repeats. Equal entries are not always repeated. Where two headings read alike, the source gives them in different places.
Experiments:
[1] = tested on: Trypanosoma cruzi epimastigotes (Tulahuen CL98 strain); assay: Antitrypanosomal activity against Trypanosoma cruzi epimastigotes (parasite count); assay type: cell-based; details: for IC50: T. cruzi epimastigotes, 48 h, mean ± S.E. of three experiments, read-out: Antitrypanocidal activity IC50; for Selectivity Index (Cytotoxicity/Activity): ratio of IC50 for fibroblast cells/IC50 for parasites; for Selectivity index greater/better than nifurtimox: in vitro selectivity index relative to nifurtimox
Description: (§1) The antitrypanosomal activity against Trypanosoma cruzi was assayed. Trypanosoma cruzi epimastigotes (Tulahuen CL98 strain) were cultured in liver infusion trypose (LIT) medium supplemented with 10% fetal bovine serum (FBS) at 28° C., with an inoculum of 1×10^5 cells/ml. […] All assays were carried out in triplicate. […] The data were subjected to statistical analysis. All experiments were done in triplicate, the means and standard errors (S.E.) were determined. Data were analyzed by one way ANOVA and Tukey's multiple comparison test using GraphPad PRISM software version 5.00. P<0.05 was considered significant.

[2] = MTT cytotoxicity assay on Balb/C 3T3 mouse fibroblasts; assay type: cell-based; details: mouse, Cytotoxicity IC50
Description: (§2) A cytotoxicity assay was performed with representive analogs IMNDQ1 through IMNDQ11. […] MTT is a yellow tetrazolium salt that is reduced to purple formazan crystals by metabolically active cells. Cells (2.2×10^4 cells/well) were seeded in 96-well plate in Improved Minimum Essential Medium (IMEM). […] After 48 h incubation at 37° C. in the presence 5% CO2, the medium was aspirated and the cells washed twice to remove traces of chemical compounds. IMEM without phenol containing 10% (v/v) of 3 mg/ml MTT were added to each well. The plates were incubated for 4 h at 37° C. followed by aspiration. The plates were dried for 1 h in a 37° C. incubator. 100 μl of 0.04 N HCl in isopropanol were added to each well and incubated at room temperature (27° C.) in the dark for 2 h to dissolve the formazan crystals. The absorbance was measured spectrophotometrically at 570 nm in a plate reader. The concentration that reduces cell viability by 50% (IC50) was calculated for each compound. The toxicity for mammalian cells and the activity against T. cruzi were compared by calculating the selectivity index (SI), the ratio of IC50 for fibroblast cells/IC50 for parasites. The data were subjected to statistical analysis. All experiments were done in triplicate, the means and standard errors (S.E.) were determined. Data were analyzed by one way ANOVA and Tukey's multiple comparison test using GraphPad PRISM software version 5.00. P<0.05 was considered significant.

[3] = Antitrypanosomal activity against Trypanosoma cruzi epimastigotes (parasite count); assay type: cell-based; details: mouse (fibroblasts) / Trypanosoma cruzi (parasites); ratio of IC50 for fibroblast cells/IC50 for parasites; read-out: Selectivity Index (Cytotoxicity/Activity)
Description: as §1

[4] = tested on: Balb/C 3T3 mouse fibroblasts (clone A31); assay: MTT cytotoxicity assay on Balb/C 3T3 mouse fibroblasts; assay type: cell-based; details: for IC50: 48 h; for Cytotoxicity compared with nifurtimox: Balb/C 3T3 mouse fibroblast cell line, FIG. 4
Description: as §2

[5] = molecular target: purified Trypanosoma cruzi tublin (Trypanosoma cruzi, UniProt P08562+Q27352); assay: Tubulin assembly assay; assay type: biochemical; details: purified T. cruzi tubulin 1.2 mg/ml, absorbance at 405 nm, 30° C.; read-out: Tubulin polymerization Inhibition IC50
Description: Tubulin assembly assays were conducted to assess tubulin polymerization inhibition. The assays were conducted in a 96-well microplate. Assembly reactions were conducted in a buffer containing 0.1 M PIPES (pH 6.9), 1 mM EGTA, 5 mM Mgcl, 1.2 mg/ml purified Trypanosoma cruzi tublin, at concentrations (0.6-40 μM) of the imido-substituted 1,4-naphthoquinone (IMDNQ 1-IMDNQ 11). Components of the reaction mixtures were added to the microplate and assembly was initiated by the addition of 1 mM GTP. The assembly reactions were assayed photometrically by measuring the absorbance at 405 nm using a microplate reader at 30° C.

[6] = tested on: T. cruzi epimastigotes; details: Ramos et al., 2009; cited from earlier work
[7] = Balb/C 3T3 mouse fibroblasts, MTT, mean ± S.E. of three experiments, read-out: Cytotoxicity IC50

| SMILES | melting point [°C] | IC50 [1] | Selectivity Index (Cytotoxicity/Activity) [1] | also measured |
| --- | --- | --- | --- | --- |
| O=C1C(Cl)=C(N(C(=O)c2ccccc2)C(=O)c2ccccc2)C(=O)c2ccccc21 [Example 20, 2-Dibenzoylamino-3-chloro-1,4-naphthoquinone] | 294 to 297 | – | – | – |
| O=C1C(Cl)=C(N(C(=O)c2cccc(Cl)c2)C(=O)c2cccc(Cl)c2)C(=O)c2ccccc21 [IMDNQ10, 3-Chloro-N-(3-chlorobenzoyl)-N-(3-chloro-1,4-dioxo-1,4-dihydronaphthalen-2-yl)-benzamide] | 258 to 260 | – | – | selectivity ratio at 48 h [3]: 275; IC50 ([1]; Trypanosoma cruzi, TULAHUEN): 2.23 µM; Selectivity index, times better than nifurtimox ([1]; calculated selectivity index relative to nifurtimox): about 25 times; Selectivity index greater/better than nifurtimox [1]: at least 300%; IC50 ([4]; mouse): 611 ± 10.3 µM; IC50 [5]: 8 µM |
| O=C1C(Cl)=C(N(C(=O)CCl)C(=O)CCl)C(=O)c2ccccc21 [IMDNQ11] | – | 6.1 ± 0.38 µM | 3.20 ± 0.44 | IC50 [4, 7]: 19.7 ± 3.71 µM; IC50 [5]: > 40 µM |
| O=C1C(Cl)=C(N2C(=O)COCC2=O)C(=O)c2ccccc21 [IMDNQ4] | – | 4.93 ± 0.64 µM | 7.43 ± 0.97 | IC50 [4, 7]: 35.5 ± 1.76 µM |
| O=C1C(c2ccccc2)=C(c2ccccc2)C(=O)c2ccccc21 [2,3-diphenyl-1,4-naphthoquinone] | – | – | – | LD50 [6]: 2.5 µM |
| O=C1C(Br)=C(N(C(=O)c2ccccc2)C(=O)c2ccccc2)C(=O)c2ccccc21 [Example 21, 2-Dibenzoylamino-3-bromo-1,4-naphthoquinone] | 234 to 238 | – | – | – |
| O=C1C(Br)=C(N(C(=O)c2ccc(Cl)cc2)C(=O)c2ccc(Cl)cc2)C(=O)c2ccccc21 [Example 23, 2-bis-(4-chlorobenzoyl)amino-3-bromo-1,4-naphthoquinone] | 266 to 269 | – | – | – |
| O=C1C(Cl)=C(N2C(=O)CCC2=O)C(=O)c2ccccc21 [IMDNQ1, 2-chloro-3-(N-succinimidyl)-1,4-naphthoquinone] | – | 2.77 µM | 60.25 and 60.25 ± 2.79 | Selectivity index greater/better than nifurtimox [1]: at least 300%; Cytotoxicity compared with nifurtimox [4]: far less cytotoxic than nifurtimox; IC50 [4, 7]: > 100 µM and 166 µM; IC50 [5]: 6 µM |
| CC1CS(=O)(=O)CCN1/N=C/c1ccc([N+](=O)[O-])o1 (stereo not shown) [Nifurtimox, reference compound] | – | 10.7 µM | – | – |
| CC(C)(C)c1ccc(C(=O)N(C(=O)c2ccc(C(C)(C)C)cc2)C2=C(Cl)C(=O)c3ccccc3C2=O)cc1 [Example 24, 2-bis-(4-tert-butylbenzoyl)amino-3-chloro-1,4-naphthoquinone] | 257 to 260 | – | – | – |
| O=C1C(Cl)=C(N2C(=O)c3ccccc3C2=O)C(=O)c2ccccc21 [IMDNQ2] | – | 4.89 µM and 4.83 µM | 53.97 and 53.97 ± 5.95 | Selectivity index greater/better than nifurtimox [1]: at least 300%; Cytotoxicity compared with nifurtimox [4]: far less cytotoxic than nifurtimox; IC50 [4, 7]: 253.7 ± 1.87 µM; IC50 [5]: 12 µM |
| CCCC(=O)N(C(=O)CCC)C1=C(Cl)C(=O)c2ccccc2C1=O [IMDNQ3] | – | 0.7 µM | 31.83 and 31.83 ± 3.17 | IC50 [4, 7]: 21.7 µM; IC50 [5]: 3.2 µM |
| O=C1C(Br)=C(N(C(=O)c2cccc(Cl)c2)C(=O)c2cccc(Cl)c2)C(=O)c2ccccc21 [Example 22, 2-bis-(3-chlorobenzoyl)amino-3-bromo-1,4-naphthoquinone] | 204 to 206 | – | – | – |

The next lines start with results.

| melting point [°C] | SMILES | IC50 [1] | Selectivity Index (Cytotoxicity/Activity) [1] | also measured |
| --- | --- | --- | --- | --- |
| 284 to 286 | O=C1C(Cl)=C(N(C(=O)c2ccc(F)cc2)C(=O)c2ccc(F)cc2)C(=O)c2ccccc21 [IMDNQ9, N-(3-Chloro-1,4-dioxo-1,4-dihydronaphthalen-2-yl)-4-fluoro-N-(4-fluorobenzoyl)-benzamide] | 4.07 ± 0.23 µM | 5.43 ± 0.69 | IC50 at 48 h [2]: 21.8 µM |
| 170 to 172 | O=C1C(Br)=C(N(C(=O)c2ccc(F)cc2)C(=O)c2ccc(F)cc2)C(=O)c2ccccc21 [IMDNQ5, N-(3-Bromo-1,4-dioxo-1,4-dihydronaphthalen-2-yl)-4-fluoro-N-(4-fluorobenzoyl)-benzamide] | 2.27 ± 0.15 µM | 5.70 ± 0.06 | IC50 at 48 h [2]: 12.8 µM |
| 283 to 287 | COc1ccc(C(=O)N(C(=O)c2ccc(OC)cc2)C2=C(Cl)C(=O)c3ccccc3C2=O)cc1 [Example 28, 2-bis-(4-methoxybenzoyl)amino-3-chloro-1,4-naphthoquinone] | – | – | – |
| 212 to 213 | O=C1C(Cl)=C(N(C(=O)c2ccc(Cl)cc2)C(=O)c2ccc(Cl)cc2)C(=O)c2ccccc21 [IMDNQ7, 4-Chloro-N-(4-chlorobenzoyl)-N-(3-chloro-1,4-dioxo-1,4-dihydronaphthalen-2-yl)-benzamide] | – | 14.23 ± 1.62 | IC50 ([1]; Trypanosoma cruzi, TULAHUEN): 1.27 ± 0.15 µM; IC50 ([4]; mouse): 17.8 ± 2.21 µM |
| 232 to 234 | O=C1C(Br)=C(N(C(=O)c2ccccc2Cl)C(=O)c2ccccc2Cl)C(=O)c2ccccc21 [IMDNQ6, N-(3-Bromo-1,4-dioxo-1,4-dihydronaphthalen-2-yl)-2-chloro-N-(2-chlorobenzoyl)-benzamide] | – | 9.43 ± 0.94 | IC50 ([1]; Trypanosoma cruzi, TULAHUEN): 1.51 µM; IC50 at 48 h [2]: 14.2 µM |
| 217 to 218 | O=C1C(Cl)=C(N(C(=O)c2ccccc2Cl)C(=O)c2ccccc2Cl)C(=O)c2ccccc21 [IMDNQ8, 2-Chloro-N-(2-chlorobenzoyl)-N-(3-chloro-1,4-dioxo-1,4-dihydronaphthalen-2-yl)-benzamide] | 2.67 ± 0.33 µM | 10.17 ± 0.97 | IC50 at 48 h [2]: 26.5 µM |

Source: patent US9422231B2, “Method for inhibiting Trypanosoma cruzi” (HOWARD UNIVERSITY, priority 2011, dated 2016)
